Data taken from patent US10870660B2, “Nitrogen-containing condensed ring compounds having dopamine D3 antagonistic effect” (Shionogi & Co., Ltd., priority 2016, dated 2020).

Legend:
[1] = target: human recombinant dopamine D3 receptor (Homo sapiens (Human), UniProt P35462); assay: Test of binding inhibition for the human dopamine D3 receptor ([3H]-Metylspiperone SPA binding); conditions: [3H]-Metylspiperone 2 nM, Jump-In HEK cell membranes, read-out: hD3_Ki
Protocol: Cell membranes: Jump-In HEK cell membranes expressing human recombinant dopamine D3 receptor (4 μg/well)
(§1) Non-specific ligand: (final concentration) 10 μM Butaclamol [(+)-Butaclamol Hydrochioride, D033, Sigma]
(§2) SPA beads: SPA beads [WGA PVT SPA Scintillatiion Beads, RPNQ0001 (500 mg), RPNQ0060 (2 g), PerkinElmer] (0.2 mg/well)
(§3) Incubation time and temperature: 120 min at 25° C.
(§4) Butaclamol or the compounds of the present invention were weighed and DMSO was added to make a 10 mM solution. This solution was diluted to each concentration.
[^3H]-Metylspiperone was weighed and the buffer solution was added to make a 6 nM solution.
(§5) SPA beads were weighed and stirred in water to make a 50 mg/mL solution. Using this solution, a mixed solution with the cell membranes was prepared.
Jump-In HEK Cell membranes (final reaction amount: 4 μg/well), SPA beads (final reaction amount: 0.2 mg/well) and Tris-HCl buffer were mixed and the mixed solution was left still for more than 60 min at 4° C. Then, 50 μL of the mixture was added to each well of the plate. In addition, 25 μL of 6 nM [^3H]-Metylspiperone (final concentration: 2 nM) was added to each well. […] Non-specific binding was calculated based on the radioactivity of [^3H]-Metylspiperone in the presence of 10 μM non-labeled Butaclamol. The total binding was calculated based on the radioactivity of [^3H]-Metylspiperone in the absence of the compounds of the present invention (Vehicle). The Ki values were calculated from dose-response curves.
(§6) Binding activities of the compounds of the present invention were calculated from the following Binding Inhibition Rate (%): Inhibition Rate (%)=[1−(c−a)(b−a)]×100(%) • a: Average cpm of non-specific binding • b: Average cpm of total binding • c: Cpm in the presence of each test compound

[2] = target: human recombinant dopamine D2 receptor (Homo sapiens (Human), UniProt P14416); assay: Test of binding inhibition for the human dopamine D2 receptor ([3H]-Metylspiperone SPA binding); conditions: [3H]-Metylspiperone 1.2 nM, Jump-In HEK cell membranes, read-out: hD2_Ki
Protocol: Cell membranes: Jump-In HEK cell membranes expressing human recombinant dopamine D2 receptor (2 μg/well)
Buffer solution: 50 mM Tris-HCl (35409-45, Nacalai Tesque) (pH 7.4) containing 120 mM NaCl (31320-05, Nacalai Tesque), 1 mM MgCl2.6H2O (20909-55, Nacalai Tesque), 5 mM KCl (28514-75, Nacalai Tesque) and 2 mM CaCl2 (067-31, Nacalai Chemical, Ltd)
Radioligand: (final concentration) 1.2 nM [^3H]-Metylspiperone ([^3H—N-methyl-]-Metylspiperone, NET-856, 83.8 Ci/mmol, PerkinElmer)
as §1, §2, §3, §4
[^3H]-Metylspiperone was weighed and the buffer solution was added to make a 3.6 nM solution.
as §5
225 nL of the solutions of the non-specific ligand or the compounds of the present invention at each concentration (in case of vehicle, final concentration 0.3% DMSO) were added in each well of a 384-well white/clear bottom microplate (3706, Corning). Jump-In HEK Cell membranes (final reaction amount: 2 μg protein/well), SPA beads (final reaction amount: 0.2 mg/well) and the buffer were mixed and the mixed solution was left still for more than or equal to 1 h at 4° C. Then, 50 μL of the mixture was added to each well of the plate. In addition, 25 μL of 3.6 nM [^3H]-Metylspiperone (final concentration: 1.2 nM) was added to each well. The plate was sealed by putting TopSeal-A 96/384 well (6050185, PerkinElmer) on the top of the plate, mixed using stirring deaerator (Welltornado, FK-62, Sakaki) and incubated for 120 min at 25° C. After incubation, the radioactivity of [^3H]-Metylspiperone which was binded to D2 receptor was determined by liquid scintillation counter (1450 Microbeta, PerkinElmer) in each well. Non-specific binding was calculated based on the radioactivity of [^3H]-Metylspiperone in the presence of 10 μM non-labeled Butaclamol. The total binding was calculated using the radioactivity of [^3H]-Metylspiperone in the absence of the compounds of the present invention (Vehicle). The Ki values were calculated from dose-response curves.
as §6

human recombinant dopamine D3 receptor, sequence (P35462 whole entry): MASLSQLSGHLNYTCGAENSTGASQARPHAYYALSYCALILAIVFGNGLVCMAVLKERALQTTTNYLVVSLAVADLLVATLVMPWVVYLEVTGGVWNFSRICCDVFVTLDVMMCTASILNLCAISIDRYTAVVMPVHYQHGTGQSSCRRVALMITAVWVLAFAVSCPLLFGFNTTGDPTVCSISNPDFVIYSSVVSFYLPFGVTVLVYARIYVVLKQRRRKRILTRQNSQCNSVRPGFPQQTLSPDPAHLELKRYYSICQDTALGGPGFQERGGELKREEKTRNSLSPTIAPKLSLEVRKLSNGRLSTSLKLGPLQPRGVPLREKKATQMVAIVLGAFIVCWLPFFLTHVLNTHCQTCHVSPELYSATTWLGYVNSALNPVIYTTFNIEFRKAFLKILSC
human recombinant dopamine D2 receptor, sequence (P14416 whole entry): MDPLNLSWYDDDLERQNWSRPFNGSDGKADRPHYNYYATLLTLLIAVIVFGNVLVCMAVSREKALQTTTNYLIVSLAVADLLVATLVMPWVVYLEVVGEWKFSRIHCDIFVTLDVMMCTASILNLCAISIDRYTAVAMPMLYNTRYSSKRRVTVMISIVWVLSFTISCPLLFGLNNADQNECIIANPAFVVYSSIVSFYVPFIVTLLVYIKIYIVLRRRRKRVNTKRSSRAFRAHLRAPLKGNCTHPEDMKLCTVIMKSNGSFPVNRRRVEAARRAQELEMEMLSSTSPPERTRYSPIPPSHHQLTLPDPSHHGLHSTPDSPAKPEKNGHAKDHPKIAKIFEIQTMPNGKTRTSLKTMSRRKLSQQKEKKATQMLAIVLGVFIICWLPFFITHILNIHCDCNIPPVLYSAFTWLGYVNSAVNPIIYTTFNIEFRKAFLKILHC

Row | SMILES | Ki [1] [nM] | Ki [2] [nM]
1 | CCn1c(C(=O)N[C@H]2CC[C@H](CCN3CCc4ccc(OCC(F)(F)F)nc4CC3)CC2)cccc1=O [II-081] | 0.048 | 230
2 | Cn1cc(CC(=O)N[C@H]2CC[C@H](CCN3CCc4sc(OCC(C)(F)F)nc4C3)CC2)c(F)n1 [III-547] | 0.64 | 800
3 | O=C(N[C@H]1CC[C@H](CCN2CCc3nc(OCC(F)F)ncc3C2)CC1)c1cccc2ncccc12 [Compound I-136] | 25 | > 1800
4 | Cc1nc(CC(=O)N[C@H]2CC[C@H](CCN3CCc4nc(OCC(F)(F)F)sc4CC3)OC2)no1 [III-180] | 0.72 | 460
5 | O=C(N[C@H]1CC[C@H](CCN2CC[C@H]3CN(c4ccccc4)C[C@@H]3C2)CC1)c1cccc2ncccc12 (racemic) [Compound I-033] | 3.6 | 170
6 | Cc1ncc(CC(=O)N[C@H]2CC[C@H](CCN3CCc4nc(OCC(C)(C)F)sc4CC3)CC2)s1 [II-099] | 0.52 | > 1900
7 | O=C(N[C@H]1CC[C@H](CCN2CCc3sc(Br)nc3C2)CC1)c1cccc2ncccc12 [Compound I-003] | 2.6 | > 1900
8 | Cn1cc2c(C(=O)NC3CC4(CC(CCN5CCc6sc(OCC(C)(F)F)nc6C5)C4)C3)cccc2n1 (single isomer, unassigned) [III-624] | 0.092 | 400
9 | Cc1ncccc1C(=O)N[C@H]1CC[C@H](CCN2CCc3nc(OCC(F)F)sc3CC2)CC1 [III-271] | 1.2 | 1100
10 | O=C(N[C@H]1CO[C@H](CCN2CCc3sc(OCC(F)(F)F)nc3C2)OC1)OCc1ccccc1 [III-659] | 9.6 | 1500
11 | Cn1cc2c(C(=O)N[C@H]3CC[C@H](CCN4CCc5sc(CCC(C)(F)F)nc5C4)CC3)cccc2n1 [III-642] | 0.37 | 920
12 | Cc1nc(CC(=O)N[C@H]2CC[C@H](CCN3CCc4ccc(OCC(F)(F)F)nc4CC3)OC2)no1 [III-001] | 0.5 | 1100
13 | Cn1c(C#N)cc2c1CCN(CC[C@H]1CC[C@H](NC(=O)c3cccc4ncccc34)CC1)C2 [Compound I-052] | 1 | 1100
14 | Cn1cc2ccc(C(=O)N[C@H]3CC[C@H](CCN4CCc5nc(OCC(F)F)sc5CC4)CC3)cc2n1 [III-270] | 0.6 | 1100
15 | O=C(CCC(F)(F)F)N[C@H]1CC[C@H](CCN2CCc3nc(CCC(F)(F)F)sc3CC2)CC1 [II-018] | 2.7 | > 1800
16 | Cc1ncc(CC(=O)N[C@H]2CC[C@H](CCN3CCc4sc(OCC(F)(F)F)nc4C(C)C3)CC2)s1 (some centres unmarked) [III-110] | 0.49 | 610
17 | O=C(NCCCCN1CCc2sc(OCC(F)(F)F)nc2C1)c1ccc2ccccc2c1 [Compound I-140] | 1.9 | 1200
18 | Cc1ncc(CC(=O)N[C@H]2CC[C@H](CCN3CCc4nc(OCC(F)(F)F)sc4CC3)CC2)o1 [II-085] | 0.096 | 740
19 | Cc1nc(CC(=O)N[C@H]2CC[C@H](CCN3CCc4nc(CCC(F)(F)F)sc4CC3)CC2)no1 [II-019] | 2.3 | > 1800
20 | Cc1ncc(/C=C/C(=O)N[C@H]2CC[C@H](CCN3CCc4nc(OCC(F)F)sc4CC3)CC2)s1 [III-274] | 0.12 | 140
21 | Cc1ncc(CC(=O)N[C@H]2CC[C@H](CCN3CCc4ccc(OCC(C)F)nc4CC3)CC2)s1 (some centres unmarked) [III-203] | 0.79 | 1400
22 | Cn1cc(CC(=O)N[C@H]2CC[C@H](CCN3CCc4sc(OC5CCC(F)(F)C5)nc4C3)CC2)cn1 (some centres unmarked) [III-484] | 0.44 | 850
23 | Cc1ncc(CC(=O)N[C@H]2CC[C@H](CCN3CCc4sc(OCC(F)F)nc4C3)CC2)s1 [Compound I-107] | 0.82 | 370
24 | Cc1cc2c(C(=O)N[C@H]3CC[C@H](CCN4CCc5nc(OCC(F)(F)F)sc5CC4)OC3)cccn2n1 [III-169] | 0.4 | 380
25 | CN1Cc2c(C(=O)N[C@H]3CC[C@H](CCN4CCc5nc(OCC(F)(F)F)sc5CC4)CC3)cccc2C1=O [II-047] | 0.022 | 280
